Measurements as given in the supplement of paper PMC10307832.

Key:
Test in all cases: relative viability (nuclei count vs DMSO), 5 days (fraction); higher = more cells survive
[1] = compound: C1=CC=C(C(=C1)C2=CC=C(C=C2)C3=CSC4=C3C(=C(C(=O)N4)C#N)O)O + CC(C)C[C@H](NC(=O)[C@H](Cc1ccccc1)NC(=O)c1cnccn1)B(O)O [Bortezomib] (partner 0.002 µM)
Procedure, shortened: (§1)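 Each reported value is a median over duplicate plates. It expresses relative viability: treated-well nuclei count divided by vehicle-well nuclei count. Lung cancer cell lines in 1536-well plates were dosed by pin tool a day after seeding, alone with one drug or with a fixed anchor-drug dose plus five library-drug doses (not always all listed) in √10 steps, and nuclei were counted after 5 days.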

TGX 221 + Crizotinib = compound: CC1=CN2C(=O)C=C(N=C2C(=C1)C(C)NC3=CC=CC=C3)N4CCOCC4 [TGX 221] + C[C@@H](Oc1cc(-c2cnn(C3CCNCC3)c2)cnc1N)c1c(Cl)ccc(F)c1Cl [Crizotinib] (partner 1 µM)
Procedure, shortened: as §1

TGX 221 + Dasatinib = compound: CC1=CN2C(=O)C=C(N=C2C(=C1)C(C)NC3=CC=CC=C3)N4CCOCC4 [TGX 221] + Cc1nc(Nc2ncc(C(=O)Nc3c(C)cccc3Cl)s2)cc(N2CCN(CCO)CC2)n1 [Dasatinib] (partner 0.075 µM)
Procedure, shortened: as §1

TGX 221 + Bortezomib = compound: CC1=CN2C(=O)C=C(N=C2C(=C1)C(C)NC3=CC=CC=C3)N4CCOCC4 [TGX 221] + CC(C)C[C@H](NC(=O)[C@H](Cc1ccccc1)NC(=O)c1cnccn1)B(O)O [Bortezomib] (partner 0.002 µM)
Procedure, shortened: as §1

## NCI-H2228
[1]; first compound 0.08 µM
  relative viability: 0.973
[1]; first compound 0.253 µM
  relative viability: 0.922
[1]; first compound 0.8 µM
  relative viability: 1.07
[1]; first compound 2.53 µM
  relative viability: 0.959
[1]; first compound 8 µM
  relative viability: 0.73
TGX 221 + Crizotinib; first compound 0.08 µM
  relative viability: 0.399
TGX 221 + Crizotinib; first compound 0.253 µM
  relative viability: 0.288
TGX 221 + Crizotinib; first compound 0.8 µM
  relative viability: 0.354
TGX 221 + Crizotinib; first compound 2.53 µM
  relative viability: 0.327
TGX 221 + Crizotinib; first compound 8 µM
  relative viability: 0.384
TGX 221 + Dasatinib; first compound 0.08 µM
  relative viability: 0.508
TGX 221 + Dasatinib; first compound 0.253 µM
  relative viability: 0.471
TGX 221 + Dasatinib; first compound 0.8 µM
  relative viability: 0.517
TGX 221 + Dasatinib; first compound 2.53 µM
  relative viability: 0.474
TGX 221 + Dasatinib; first compound 8 µM
  relative viability: 0.398
TGX 221 + Bortezomib; first compound 0.08 µM
  relative viability: 1.02
TGX 221 + Bortezomib; first compound 0.253 µM
  relative viability: 0.787
TGX 221 + Bortezomib; first compound 0.8 µM
  relative viability: 1.21
TGX 221 + Bortezomib; first compound 2.53 µM
  relative viability: 0.77
TGX 221 + Bortezomib; first compound 8 µM
  relative viability: 0.751

## NCI-H2347
[1]; first compound 0.08 µM
  relative viability: 0.913
[1]; first compound 0.253 µM
  relative viability: 1.24
[1]; first compound 0.8 µM
  relative viability: 1.23
[1]; first compound 2.53 µM
  relative viability: 1.02
[1]; first compound 8 µM
  relative viability: 0.869
TGX 221 + Crizotinib; first compound 0.08 µM
  relative viability: 0.67
TGX 221 + Crizotinib; first compound 0.253 µM
  relative viability: 0.666
TGX 221 + Crizotinib; first compound 0.8 µM
  relative viability: 0.635
TGX 221 + Crizotinib; first compound 2.53 µM
  relative viability: 0.701
TGX 221 + Crizotinib; first compound 8 µM
  relative viability: 0.542
TGX 221 + Dasatinib; first compound 0.08 µM
  relative viability: 0.242
TGX 221 + Dasatinib; first compound 0.253 µM
  relative viability: 0.318
TGX 221 + Dasatinib; first compound 0.8 µM
  relative viability: 0.313
TGX 221 + Dasatinib; first compound 2.53 µM
  relative viability: 0.244
TGX 221 + Dasatinib; first compound 8 µM
  relative viability: 0.269
TGX 221 + Bortezomib; first compound 0.253 µM
  relative viability: 0.899
TGX 221 + Bortezomib; first compound 0.8 µM
  relative viability: 0.886
TGX 221 + Bortezomib; first compound 2.53 µM
  relative viability: 0.877
TGX 221 + Bortezomib; first compound 8 µM
  relative viability: 0.752

## NCI-H2405
[1]; first compound 0.08 µM
  relative viability: 1.02
[1]; first compound 0.253 µM
  relative viability: 0.991
[1]; first compound 0.8 µM
  relative viability: 0.977
[1]; first compound 2.53 µM
  relative viability: 0.954
[1]; first compound 8 µM
  relative viability: 0.988
TGX 221 + Crizotinib; first compound 0.08 µM
  relative viability: 0.792
TGX 221 + Crizotinib; first compound 0.253 µM
  relative viability: 0.834
TGX 221 + Crizotinib; first compound 0.8 µM
  relative viability: 0.769
TGX 221 + Crizotinib; first compound 2.53 µM
  relative viability: 0.757
TGX 221 + Crizotinib; first compound 8 µM
  relative viability: 0.671
TGX 221 + Dasatinib; first compound 0.08 µM
  relative viability: 0.235
TGX 221 + Dasatinib; first compound 0.253 µM
  relative viability: 0.206
TGX 221 + Dasatinib; first compound 0.8 µM
  relative viability: 0.22
TGX 221 + Dasatinib; first compound 2.53 µM
  relative viability: 0.205
TGX 221 + Dasatinib; first compound 8 µM
  relative viability: 0.179
TGX 221 + Bortezomib; first compound 0.08 µM
  relative viability: 0.94
TGX 221 + Bortezomib; first compound 0.253 µM
  relative viability: 1.04
TGX 221 + Bortezomib; first compound 0.8 µM
  relative viability: 1.01
TGX 221 + Bortezomib; first compound 2.53 µM
  relative viability: 0.92
TGX 221 + Bortezomib; first compound 8 µM
  relative viability: 0.953

## NCI-H3122
[1]; first compound 0.08 µM
  relative viability: 1.02
[1]; first compound 0.253 µM
  relative viability: 1.06
[1]; first compound 0.8 µM
  relative viability: 1.06
[1]; first compound 2.53 µM
  relative viability: 0.993
[1]; first compound 8 µM
  relative viability: 1.11
TGX 221 + Crizotinib; first compound 0.08 µM
  relative viability: 0.278
TGX 221 + Crizotinib; first compound 0.253 µM
  relative viability: 0.227
TGX 221 + Crizotinib; first compound 0.8 µM
  relative viability: 0.281
TGX 221 + Crizotinib; first compound 2.53 µM
  relative viability: 0.294
TGX 221 + Crizotinib; first compound 8 µM
  relative viability: 0.356
TGX 221 + Dasatinib; first compound 0.08 µM
  relative viability: 0.931
TGX 221 + Dasatinib; first compound 0.253 µM
  relative viability: 0.83
TGX 221 + Dasatinib; first compound 0.8 µM
  relative viability: 0.865
TGX 221 + Dasatinib; first compound 2.53 µM
  relative viability: 0.794
TGX 221 + Dasatinib; first compound 8 µM
  relative viability: 0.872
TGX 221 + Bortezomib; first compound 0.08 µM
  relative viability: 1.02
TGX 221 + Bortezomib; first compound 0.253 µM
  relative viability: 1.04
TGX 221 + Bortezomib; first compound 0.8 µM
  relative viability: 0.969
TGX 221 + Bortezomib; first compound 2.53 µM
  relative viability: 0.941
TGX 221 + Bortezomib; first compound 8 µM
  relative viability: 1.02

## PC-3 [JPC-3]
[1]; first compound 0.08 µM
  relative viability: 0.762
[1]; first compound 0.253 µM
  relative viability: 0.817
[1]; first compound 0.8 µM
  relative viability: 0.758
[1]; first compound 2.53 µM
  relative viability: 0.95
[1]; first compound 8 µM
  relative viability: 0.899
TGX 221 + Crizotinib; first compound 0.08 µM
  relative viability: 0.988
TGX 221 + Crizotinib; first compound 0.253 µM
  relative viability: 0.991
TGX 221 + Crizotinib; first compound 0.8 µM
  relative viability: 1.04
TGX 221 + Crizotinib; first compound 2.53 µM
  relative viability: 0.912
TGX 221 + Crizotinib; first compound 8 µM
  relative viability: 0.994
TGX 221 + Dasatinib; first compound 0.08 µM
  relative viability: 0.893
TGX 221 + Dasatinib; first compound 0.253 µM
  relative viability: 0.934
TGX 221 + Dasatinib; first compound 0.8 µM
  relative viability: 1.02
TGX 221 + Dasatinib; first compound 2.53 µM
  relative viability: 0.93
TGX 221 + Dasatinib; first compound 8 µM
  relative viability: 0.925
TGX 221 + Bortezomib; first compound 0.08 µM
  relative viability: 0.759
TGX 221 + Bortezomib; first compound 0.253 µM
  relative viability: 0.73
TGX 221 + Bortezomib; first compound 0.8 µM
  relative viability: 0.883
TGX 221 + Bortezomib; first compound 2.53 µM
  relative viability: 0.735
TGX 221 + Bortezomib; first compound 8 µM
  relative viability: 0.851
